The values that follow come from patent publication US11952328B2, “Selective ship inhibitors for treating disease” (THE RESEARCH FOUNDATION FOR THE STATE UNIVERSITY OF NEW YORK, priority 2018, dated 2024).

The subject of one test is CD8+ T cells. In words: CD8 T cell activation (CD69) and degranulation (CD107a) after two-day in vivo treatment. Details: species or system mice. Here is the method: FIGS. 3B-3E show activation of NK cells and T cells following exposure to the SHIP1 inhibitor 3AC in vivo. NK cells from two-day 3AC- or vehicle-treated mice were stimulated by incubation on uncoated plates, on plates coated with anti-NK1.1, anti-NKp46, or anti-NKG2D antibody, or on uncoated plates but in the presence of PMA and ionomycin. Representative flow plots (FIG. 3B) and box and whisker plots (FIG. 3C) show the frequency of NK cell production of IFNγ determined by intracellular flow cytometry. […] Anti-CD107a (LAMP-1) PE antibody was added for the final 5 hours of incubation. Degranulation of CD8+ T cells was determined by analysis of CD107a expression by flow cytometry. NK cells are defined as NK1.1+CD3ε− and CD8+ T cells as NK1.1-CD3ε+CD8+CD4−. Graphs are representative of at least two independent experiments with at least four 3AC- and vehicle-treated mice per group (FIGS. 3B-3C) or pooled data from two independent experiments is shown (FIGS. 3D-3F). FIG. 3C (unstim: n=4, p=0.0962, Unpaired t test with Welch's correction. NK1.1: n=4, p=0.0038, Two-tailed student's T test. NKG2D: n=4, p=0.0450, Two-tailed student's T test. NKp46: n=4, p=0.0144, Two-tailed student's T test. PMA: p=0.2945, Two-tailed student's T test). FIG. 3D (n=8, p=0.0153, Unpaired T test with Welch's correction). FIG. 3E (n=8, p=0.0009, Two-tailed student's T test) FIG. 3F (n=9, p=0.0083, Two-tailed student's T test).
To determine if SHIP inhibitors are also capable of activating the other major type of cytotoxic lymphocyte the responsiveness of CD8 T cells following the same, short-term, 3AC treatment was examined.

Test [1] relates to MC-38 colon carcinoma cells. Description: Subcutaneous MC-38 colon carcinoma model. Format: in vivo, C57BL/6 mice. Here is the method: FIG. 7A and FIG. 7B show CT26 (FIG. 7A) and MC-38 (FIG. 7B) viability following in vitro treatment with 3AC for 24 h at indicated doses. Relative viability is expressed as frequency compared to solvent only treated cells. Kill curve summarizes pooled data from three independent experiments using six replicate wells/concentration with mean±SEM indicated. BALB/C mice were challenged with subcutaneous injection of CT26 colon carcinoma cells in the right flank. Mice were treated with either 2 consecutive days of 3AC or vehicle control each week as in FIG. 4A. Tumor size at […] 28 days (FIG. 7C), and tumor weight on day 28 determined after dissection of tumor (FIG. 7E). […] C57BL/6 mice were challenged with subcutaneous injection of MC-38 colon carcinoma cells in the right flank. Mice were treated with either 2 consecutive days of SHIP inhibitor or vehicle control each week as in FIG. 4A. Tumor size at 14, 21 and 25 days (FIG. 7D), and tumor weight (FIG. 7F) on day 25 were determined after dissection of tumor. […] FIG. 7A (n=18 per group. One-way ANOVA with Dunnett's multiple comparisons. 0 μM vs. 20 μM Adjusted p value=0.0463. All other concentrations of SHIP inhibitor compared with solvent only N.S.). FIG. 7B (n=18 per group. One-way ANOVA with Dunnett's multiple comparisons. All concentrations of SHIP inhibitor compared with solvent only N.S.). FIGS. 7C-7F graphs represent data from one of two independent experiments. FIG. 7C (n=10. Day 14 p<0.0001, Unpaired t test with Welch's correction. Day 21 p<0.0001, two-tailed student's t-test. Day 28 p<0.0001, two-tailed Student's t-test). FIG. 7E (n=10. P<0.0001, two-tailed Student's t-test) FIG. 7D (n=10. Day 14 p=0.0005, two-tailed student's t-test. Day 21 p=0.0009, two-tailed Student's t-test. Day 25 p=0.0009, two-tailed student's t-test). FIG. 7F (n=10. P=0.0067, two-tailed student's t-test).
Colorectal cancer is the second leading cause of cancer mortality in the United States (Siegel, R. L. et al., Colorectal cancer statistics, 2017. CA Cancer J Clin. (2017)). […]

Setting [2] is: splenic CD8+ T cells, two-day 3AC vs vehicle.

With `CC(C)CCC[C@@H](C)[C@H]1CC[C@H]2[C@@H]3CCC4C[C@H](N)CC[C@]4(C)[C@H]3CC[C@]12C` (stereo partly drawn) [Compound 3AC, 3-α-aminocholestane], in the test with CD8+ T cells (setting [2]), the “percentage of activated CD8 T cells (CD69 expression)” value is “significantly increased” and the “surface expression of CD69 amongst CD8 T cells” value is reported as “increased”. In addition, the “LAMP-1 (CD107a) expression of CD8 T cells (degranulation)” value in the test on CD8+ T cells (splenic CD8 T cells, crosslinking of TcR and CD28 (anti-CD3, anti-CD28) overnight) is listed as “increased frequency”. Besides, the tumor weight result in test [1] (day 25, vs vehicle) is reported as “significant reduction”. In test [1] (two consecutive days each week, days 14, 21, 25, vs vehicle), the tumor size entry was “significant reduction”. Also, the “histological analysis (H&E) of tumors” value in test [1] (vs vehicle) is reported as “prominent zones of tumor cell death”.
